From ChEMBL document CHEMBL5321199, “Development of a series of quinazoline-2,5-diamine derivatives as potent hematopoietic progenitor kinase 1 (HPK1) inhibitors” (Eur J Med Chem, 2023)
pEC50, pIC50: −log10 of the molar value. Active and inactive are the calls of the source. No cut-off for these calls is given here.

Experiments:
[1] = molecular target: T1, Mitogen-activated protein kinase kinase kinase kinase 1 (Homo sapiens, UniProt Q92918); test: Inhibition of HPK1 in human Jurkat E6.1 cells assessed as reduction in SLP76 phosphorylation at Serine 376 residue preincubated with compound for 2 hrs followed by stimulation with alphaCD3/CD28 measured after 10 mins by Western blotting analysis; format: cell-based
Target sequence in this assay (Q92918 whole entry): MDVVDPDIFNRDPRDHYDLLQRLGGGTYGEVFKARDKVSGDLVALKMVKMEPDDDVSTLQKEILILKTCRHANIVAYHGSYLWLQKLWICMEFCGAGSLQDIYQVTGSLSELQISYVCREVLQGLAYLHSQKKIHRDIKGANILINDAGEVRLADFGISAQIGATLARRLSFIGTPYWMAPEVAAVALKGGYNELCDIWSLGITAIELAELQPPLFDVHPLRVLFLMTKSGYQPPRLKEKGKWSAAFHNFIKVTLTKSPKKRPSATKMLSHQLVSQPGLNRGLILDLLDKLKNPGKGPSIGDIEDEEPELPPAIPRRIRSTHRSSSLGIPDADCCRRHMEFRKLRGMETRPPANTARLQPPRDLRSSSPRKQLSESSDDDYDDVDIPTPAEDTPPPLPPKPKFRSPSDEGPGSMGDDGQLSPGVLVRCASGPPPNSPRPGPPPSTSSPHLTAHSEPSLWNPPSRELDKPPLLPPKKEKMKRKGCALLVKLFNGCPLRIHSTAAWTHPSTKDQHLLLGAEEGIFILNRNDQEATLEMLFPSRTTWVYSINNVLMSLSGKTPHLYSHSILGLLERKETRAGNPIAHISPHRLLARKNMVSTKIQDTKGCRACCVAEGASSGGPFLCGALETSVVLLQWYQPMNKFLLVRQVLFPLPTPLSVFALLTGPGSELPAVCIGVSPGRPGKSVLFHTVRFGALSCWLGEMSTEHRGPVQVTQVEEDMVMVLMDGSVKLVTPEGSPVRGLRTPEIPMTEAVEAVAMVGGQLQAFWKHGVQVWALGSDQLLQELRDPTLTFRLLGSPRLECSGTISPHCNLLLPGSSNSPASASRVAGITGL

[2] = molecular target: T1, Mitogen-activated protein kinase kinase kinase kinase 1; test: Inhibition of HPK1 in human Jurkat E6.1 cells assessed as reduction in SLP76 phosphorylation at Serine 376 residue at 33 nM preincubated with compound for 2 hrs followed by stimulation with alphaCD3/CD28 measured after 10 mins by Western blotting analysis; format: cell-based; settings: time 130.0 min
Target sequence in this assay (Q92918 whole entry, looked up): as the sequence (Q92918 whole entry) above

[3] = molecular target: T1, Mitogen-activated protein kinase kinase kinase kinase 1; test: Inhibition of HPK1 (unknown origin) at 100 nM using myelin basic protein as substrate incubated for 60 mins in presence of ATP by ADP-Glo kinase assay relative to control
Target sequence in this assay (Q92918 whole entry, looked up): as the sequence (Q92918 whole entry) above

[4] = molecular target: T1, Mitogen-activated protein kinase kinase kinase kinase 1; test: Inhibition of HPK1 (unknown origin) using myelin basic protein as substrate incubated for 60 mins in presence of ATP by ADP-Glo kinase assay
Target sequence in this assay (Q92918 whole entry): as above

[5] = molecular target: T1, Mitogen-activated protein kinase kinase kinase kinase 1; test: Inhibition of HPK1 in human PBMC cells assessed as increase in IL-2 release at above 1 uM preincubated with compound for 1 hr followed by stimulation with alphaCD3/CD28 measured after 48 hrs by ELISA assay; format: cell-based; settings: time 49.0 hrs
Target sequence in this assay (Q92918 whole entry, looked up): as the sequence (Q92918 whole entry) above

[6] = molecular target: T1, Mitogen-activated protein kinase kinase kinase kinase 1; test: Inhibition of HPK1 (unknown origin) at 1 uM using myelin basic protein as substrate incubated for 60 mins in presence of ATP by ADP-Glo kinase assay relative to control
Target sequence in this assay (Q92918 whole entry, looked up): as the sequence (Q92918 whole entry) above

[7] = molecular target: T1, Mitogen-activated protein kinase kinase kinase kinase 1; test: Inhibition of HPK1 in human PBMC cells assessed as reduction in SLP76 phosphorylation at Ser376 residue preincubated with compound for 1 hr followed by stimulation with CD3/CD28-dynabead by ELISA assay; format: cell-based
Target sequence in this assay (Q92918 whole entry): as above

[8] = molecular target: T1, Mitogen-activated protein kinase kinase kinase kinase 1; test: Inhibition of HPK1 in human Jurkat E6.1 cells assessed as reduction in SLP76 phosphorylation at Serine 376 residue at 0.4 to 100 nM preincubated with compound for 2 hrs followed by stimulation with alphaCD3/CD28 measured after 10 mins by Western blotting analysis; format: cell-based; settings: dose 0.4-100 nM, time 130.0 min
Target sequence in this assay (Q92918 whole entry, looked up): as the sequence (Q92918 whole entry) above

[9] = molecular target: T1, Mitogen-activated protein kinase kinase kinase kinase 1; test: Inhibition of HPK1 in human PBMC cells assessed as increase in IL-2 release preincubated with compound for 1 hr followed by stimulation with CD3/CD28-dynabead measured after 16 to 18 hrs by ELISA assay; format: cell-based
Target sequence in this assay (Q92918 whole entry): as above

[10] = molecular target: T1, Mitogen-activated protein kinase kinase kinase kinase 1; test: Inhibition of N-terminal DYKDDDDK tagged HPK1 CD (1 to 346 residues) (unknown origin) incubated for 1 hr in presence of ATP by TR-FRET assay
Target sequence in this assay (Q92918 whole entry): as above

[11] = molecular target: T1, Mitogen-activated protein kinase kinase kinase kinase 1; test: Inhibition of HPK1 in human Jurkat E6.1 cells assessed as phosphorylation of SLP76 at serine 376 residue incubated for 4 hrs by HTRF assay; format: cell-based
Target sequence in this assay (Q92918 whole entry): as above

Row | SMILES | inhibition [3] | pIC50 [4] | inhibition [6] | further results
1 | Cc1c(-c2cc(N)c3cnc(Nc4cnn(C5CC5)c4)nc3c2)cnc2c1NCCO2 | 96.3% | 8.24 | – | pIC50 [1]: 7.64; inhibition [2]: Active; inhibition [5]: Active
2 | Cc1c(-c2cc(N)c3cnc(Nc4ccc5c(c4)CNCC5)nc3c2)cnc2c1NCCO2 | – | 8.52 | – | –
3 | Cc1nn(C)cc1-c1cc(N)c2cnc(Nc3cnn(C4CC4)c3)nc2c1 | -5.1% | – | 25.8% | –
4 | Cc1c(-c2cc(N)c3cnc(Nc4cnn(C)c4)nc3c2)cnc2c1NCCO2 | – | 8.11 | – | –
5 | Nc1cc(-c2cccnc2)cc2nc(Nc3cnn(C4CC4)c3)ncc12 | 56.2% | 7.21 | 86% | –
6 | Cc1nn(C)cc1Nc1ncc2c(N)cc(-c3cnc4c(c3C)NCCO4)cc2n1 | – | 8.10 | – | –
7 | Cc1c(-c2cc(N)c3cnc(Nc4ccncc4)nc3c2)cnc2c1NCCO2 | – | 8.24 | – | –
8 | Cc1c(-c2cc(N)c3cnc(Nc4cc(C)n(C)n4)nc3c2)cnc2c1NCCO2 | – | 7.28 | – | –
9 | Cn1cc(-c2cc(N)c3cnc(Nc4cnn(C5CC5)c4)nc3c2)cn1 | 68.6% | 7.30 | 95.8% | –
10 | N#Cc1ccncc1-c1cc(N)c2cnc(Nc3cnn(C4CC4)c3)nc2c1 | 36.3% | – | 85.5% | –
11 | CNCCc1ccc(Nc2ncc3c(N)cc(-c4cnc5c(c4C)NCCO5)cc3n2)cc1 | – | 8.25 | – | –
12 | Cc1ccncc1-c1cc(N)c2cnc(Nc3cnn(C4CC4)c3)nc2c1 | 87.2% | 7.75 | 98.1% | –
13 | Cc1c(-c2cc3cc(NC(=O)C4CC4)ncc3c(N)c2F)cnc2c1NCCO2 | 97.9% | 8.51 | – | pIC50 [1]: 8.21; pIC50 [7]: 7.08; inhibition [8]: Active; pEC50 [9]: 7.80; pIC50 [10]: 10.17
14 | Cc1cncc(-c2cc(N)c3cnc(Nc4cnn(C5CC5)c4)nc3c2)c1 | 42.7% | – | 87.6% | –
15 | CCN1CCc2ccc(Nc3ncc4c(N)cc(-c5cnc6c(c5C)NCCO6)cc4n3)cc2C1 | – | 8.16 | – | –
16 | CNCc1ccc(Nc2ncc3c(N)cc(-c4cnc5c(c4C)NCCO5)cc3n2)cc1 | – | 8.37 | – | –
17 | Cc1c(-c2cc(N)c3cnc(Nc4ccc5c(c4)CN(C(C)C)CC5)nc3c2)cnc2c1NCCO2 | – | 8.28 | – | –
18 | COc1cc2c(cc1Nc1ncc3c(N)cc(-c4cnc5c(c4C)NCCO5)cc3n1)CN(C)CC2 | – | 8.14 | – | –
19 | Cc1c(-c2cc(N)c3cnc(Nc4ccccn4)nc3c2)cnc2c1NCCO2 | – | 7.02 | – | –
20 | CC1(C)OC(=O)c2ccc(Nc3ncc(-c4nnco4)c(N[C@H](CO)c4ccccc4)n3)cc21 | 92.5% | – | 99.7% | –
21 | Nc1cc(-c2ccccn2)cc2nc(Nc3cnn(C4CC4)c3)ncc12 | -6.9% | – | 30.3% | –
22 | Nc1cncc(-c2cc(N)c3cnc(Nc4cnn(C5CC5)c4)nc3c2)c1 | 80% | 7.48 | – | –

Row | SMILES | inhibition [3] | pIC50 [4] | inhibition [6] | further results
23 | Nc1cc(-c2ccncc2)cc2nc(Nc3cnn(C4CC4)c3)ncc12 | -3.3% | – | 24.1% | –
24 | Cc1nn(C)c(C)c1Nc1ncc2c(N)cc(-c3cnc4c(c3C)NCCO4)cc2n1 | 7.5% | – | – | –
25 | Cc1c(-c2cc(N)c3cnc(Nc4cnn(C(C)C)c4)nc3c2)cnc2c1NCCO2 | – | 8.19 | – | –
26 | Cc1c(-c2cc(N)c3cnc(Nc4ccccc4)nc3c2)cnc2c1NCCO2 | – | 8.21 | – | –
27 | CNCc1cccc(Nc2ncc3c(N)cc(-c4cnc5c(c4C)NCCO5)cc3n2)c1 | – | 8.30 | – | –
28 | Cn1nccc1-c1cc(N)c2cnc(Nc3cnn(C4CC4)c3)nc2c1 | 23.2% | – | 49.2% | –
29 | Cc1c(-c2cc(N)c3cnc(Nc4cnn(C5CC5)c4)nc3c2)cnn1C | 53.6% | 7.21 | 90.9% | –
30 | Cc1c(-c2cc(N)c3cnc(Nc4ccc5c(c4)CCN(C)C5)nc3c2)cnc2c1NCCO2 | – | 8.32 | – | –
31 | CCn1ccc(Nc2ncc3c(N)cc(-c4cnc5c(c4C)NCCO5)cc3n2)n1 | – | 7.81 | – | –
32 | CCn1cc(Nc2ncc3c(N)cc(-c4cnc5c(c4C)NCCO5)cc3n2)cn1 | – | 7.92 | – | –
33 | Cc1ccc(-c2cc(N)c3cnc(Nc4cnn(C5CC5)c4)nc3c2)cn1 | 36.2% | – | 85.9% | –
34 | Cc1c(-c2cc(N)c3cnc(Nc4cnn(C)c4C)nc3c2)cnc2c1NCCO2 | – | 7.45 | – | –
35 | Cc1c(-c2cc(N)c3cnc(Nc4ccc5c(c4)CCNC5)nc3c2)cnc2c1NCCO2 | – | 8.37 | – | –
36 | Cc1c(-c2cc(N)c3cnc(Nc4cccnc4)nc3c2)cnc2c1NCCO2 | – | 8.26 | – | –
37 | Cc1c(N)cncc1-c1cc(N)c2cnc(Nc3cnn(C4CC4)c3)nc2c1 | 93% | 7.98 | – | –
38 | Nc1cc(-c2ccccc2)cc2nc(Nc3cnn(C4CC4)c3)ncc12 | 1.6% | – | 33.6% | –
39 | Cc1c(-c2cc(N)c3cnc(Nc4ccn(C)n4)nc3c2)cnc2c1NCCO2 | – | 7.90 | – | –
40 | CN1CCC(c2ncc(-c3cnc(N)c(OCc4cccc(C#CC(C)(C)O)c4)c3)s2)CC1 | – | – | – | pIC50 [11]: > 7.00
41 | COc1ncc(-c2cc(N)c3cnc(Nc4cnn(C5CC5)c4)nc3c2)cc1N | 0.1% | – | 60.6% | –
42 | CNCCc1cccc(Nc2ncc3c(N)cc(-c4cnc5c(c4C)NCCO5)cc3n2)c1 | – | 8.22 | – | –
43 | Cc1c(-c2cc(N)c3cnc(NC(=O)C4CC4)nc3c2)cnc2c1NCCO2 | 4.7% | – | – | –
